Among the data in US10442788B2, “Hepatitis B antiviral agents” (ENANTA PHARMACEUTICALS, INC., priority 2015, dated 2019) are EC50 values, retold here.

The test system of the first assay is HBV. The assay is described as follows: HepAD38 antiviral assay: reduction of viral product accumulation (virion DNA by qPCR, HBsAg or HBeAg by ELISA). The format is cell-based. As to conditions: Hepatitis B virus, 120 h; HepAD38 cells, five days after compound addition; 50% reduction of viral product accumulation relative to no drug controls; read-out: HepAD38 EC50. On the procedure:
Methods: HepAD38 cells are maintained as previously reported (Ladner et al, Antimicrob. Agents Chemother. 1997, […], 1715). Briefly, cells are passaged upon attaining confluency in DMEM/F12 media in the presence of 10% FBS, Penn/Strep, 250 μg/mL G418, and 1 ug/ml tetracycline. Novel compounds are screened by first washing cells three times with PBS to remove tetracycline, and plating in 96 well plates at 35,000 cells/well. Compounds dissolved in DMSO are then diluted 1:200 into wells containing cells. Five days after compound addition, material is harvested for analysis. For an extended 8 day analysis, cells are plated and treated as described above, but media and compound are refreshed on d2 and d5 post initial treatment.
On harvest day, virion DNA is obtained by lysing with Sidestep Lysis and Stabilization Buffer and then quantified via quantitative real time PCR. Commercially available ELISA kits are used to quantitate the viral proteins HBsAg (Alpco) or HbeAg (US Biological) by following the manufacturer's recommended protocol after diluting samples to match the linear range of their respective assays. Irrespective of readout, compound concentrations that reduce viral product accumulation in the cell lysates or supernatants by 50% relative to no drug controls (EC50) are reported; EC50 ranges are as follows: A<1 μM; B 1-10 μM; C>10 μM.
In general terms: In qPCR the cycle at which signal appears reflects the starting amount.
As to `O=S(=O)(c1cc(-c2nc(-c3ccc(Br)c(F)c3)c[nH]2)ccc1F)N1CCC(O)CC1` [Example 267], the EC50 was less than 1 µM.

Consider `O=S(=O)(c1cc(-c2nc(-c3ccc(Br)c(F)c3)c[nH]2)ccc1Cl)N1CCN(c2ccncc2)CC1` [Example 196], for which the EC50 is less than 1 µM.

As to `COc1ccc(-c2c[nH]c(-c3ccc(Cl)c(S(=O)(=O)N4CCC(O)CC4)c3)n2)cc1` [Example 98], the EC50 lay within 1 to 10 µM.

As to `O=S(=O)(c1cc(-c2nc(-c3ccc(Br)c(F)c3)c[nH]2)ccc1Cl)N1CCN(c2cc(F)ccn2)CC1` [Example 205], the EC50 was less than 1 µM.

For the compound `COC(=O)NC[C@@H]1[C@H]2CN(S(=O)(=O)c3cc(-c4ncc(-c5ccc(F)c(Br)c5)[nH]4)ccc3Cl)C[C@@H]12` [Example 168], the EC50 is less than 1 µM.

For the compound `O=S(=O)(NC[C@@H](O)CO)c1cc(-c2ncc(-c3ccc(Br)c(F)c3)[nH]2)ccc1Cl` [Example 214], the EC50 was less than 1 µM.

Regarding `O=S(=O)(c1cc(-c2nc(-c3ccc(Br)c(F)c3)c[nH]2)ccc1Cl)N1CC[C@H](CO)C1` [Example 254], the EC50 is less than 1 µM.

In the case of `CC(C)(C)OC(=O)NCC1CCN(S(=O)(=O)c2cc(-c3nc(-c4ccc(Br)c(F)c4)c[nH]3)ccc2Cl)C1` (stereo not drawn) [Example 199], the EC50 is less than 1 µM.

For the compound `O=S(=O)(c1cc(-c2nc(-c3ccc(CC(F)(F)F)cc3)c[nH]2)ccc1Cl)N1CCC(O)CC1` [Example 238], the EC50 is greater than 10 µM.

`O=S(=O)(c1cc(-c2nc(-c3ccc(C(F)(F)F)c(Cl)c3)c[nH]2)ccc1Cl)N1CCC(O)CC1` [Example 151]: the EC50 was less than 1 µM.

For the compound `O=S(=O)(N[C@H]1CC[C@H](O)CC1)c1cc(-c2ncc(-c3ccc(Br)c(F)c3)[nH]2)ccc1Cl` [Example 212], the EC50 is less than 1 µM.

As to `O=S(=O)(c1cc(-c2ncc(-c3ccc(Br)c(F)c3)[nH]2)ccc1Cl)N1CCC2CC2(O)C1` (stereo not drawn) [Example 257], the EC50 is less than 1 µM.

On to `O=S(=O)(c1cc(-c2nc(-c3nccs3)c[nH]2)ccc1Cl)N1CCC(O)CC1` [Example 81], for which the EC50 was greater than 10 µM.

Consider `O=S(=O)(c1cc(-c2nc(-c3ccc(Br)c(F)c3)c[nH]2)ccc1Cl)N1C[C@H](O)C[C@@H]2C[C@@H]2C1` [Example 275], for which the EC50 is less than 1 µM.

Regarding `O=S(=O)(NC1CC(O)C1)c1cc(-c2ncc(-c3ccc(Br)c(F)c3)[nH]2)ccc1Cl` (stereo not drawn) [Example 223], the EC50 was 1 to 10 µM.

As for `O=P(O)(O)OC1CCN(S(=O)(=O)c2cc(-c3nc(-c4ccc(F)c(Br)c4)c[nH]3)ccc2Cl)CC1` [Example 207], the EC50 was 1 to 10 µM.

Take `O=S(=O)(c1cc(-c2nc(-c3ccc(C4CC4)c(Cl)c3)c[nH]2)ccc1Cl)N1CCC(O)CC1` [Example 157]: the EC50 is less than 1 µM.

Take `COC(=O)OCCCNS(=O)(=O)c1cc(-c2nc(-c3ccc(Br)c(F)c3)c[nH]2)ccc1Cl` [Example 177]: the EC50 was less than 1 µM.

Take `COC(=O)NCCCCCNS(=O)(=O)c1cc(-c2nc(-c3ccc(Br)c(F)c3)c[nH]2)ccc1Cl` [Example 175]: the EC50 was less than 1 µM.

`COCC(C)NS(=O)(=O)c1cc(-c2nc(-c3ccc(Br)c(F)c3)c[nH]2)ccc1Cl` (stereo not drawn) [Example 164]: the EC50 lay in the range of 1 to 10 µM.

`O=S(=O)(c1cc(-c2nc(-c3ccc(C(F)(F)F)c(C4CC4)c3)c[nH]2)ccc1Cl)N1CCC(O)CC1` [Example 161]: the EC50 was less than 1 µM.

`N#Cc1ccc(-c2c[nH]c(-c3ccc(Cl)c(S(=O)(=O)N4CCC(O)CC4)c3)n2)cc1C(F)(F)F` [Example 155]: the EC50 was less than 1 µM.

On to `COC(=O)NC(C)CCNS(=O)(=O)c1cc(-c2nc(-c3ccc(Br)c(F)c3)c[nH]2)ccc1Cl` (stereo not drawn) [Example 188], for which the EC50 is less than 1 µM.

As for `COC(=O)NCC1CCN(S(=O)(=O)c2cc(-c3ncc(-c4ccc(Br)c(F)c4)[nH]3)ccc2Cl)C1` (stereo not drawn) [Example 274], the EC50 was less than 1 µM.

For the compound `O=S(=O)(NCCCNc1ncco1)c1cc(-c2nc(-c3ccc(Br)c(F)c3)c[nH]2)ccc1Cl` [Example 237], the EC50 was less than 1 µM.

Regarding `CNC(=O)OCCCNS(=O)(=O)c1cc(-c2nc(-c3ccc(Br)c(F)c3)c[nH]2)ccc1Cl` [Example 186], the EC50 was less than 1 µM.

Take `CC(C)(C)OC(=O)NC[C@@H]1[C@H]2CN(S(=O)(=O)c3cc(-c4ncc(-c5ccc(F)c(Br)c5)[nH]4)ccc3Cl)C[C@@H]12` [Example 167]: the concentration for a half-maximal effect (EC50) lay in the range of 1 to 10 µM.

On to `N#Cc1ccc(-c2c[nH]c(-c3ccc(Cl)c(S(=O)(=O)N4CCC(O)CC4)c3)n2)cc1Cl` [Example 149], for which the EC50 is less than 1 µM.

As to `O=S(=O)(c1cc(-c2ncc(-c3ccc(Br)c(F)c3)[nH]2)ccc1Cl)N1CC[C@H](O)[C@@H](O)C1` [Example 231], the EC50 is less than 1 µM.

As to `N#Cc1cc(-c2c[nH]c(-c3ccc(Cl)c(S(=O)(=O)N4CCC(O)CC4)c3)n2)ccc1C(F)(F)F` [Example 150], the EC50 is less than 1 µM.

`O=S(=O)(c1cc(-c2ncc(-c3ccc(Br)c(F)c3)[nH]2)ccc1Cl)N1CCC[C@@H](CO)C1` [Example 261]: the EC50 is less than 1 µM.

With `O=S(=O)(N[C@H]1C[C@@H](O)C1)c1cc(-c2ncc(-c3ccc(Br)c(F)c3)[nH]2)ccc1Cl` [Example 211], the EC50 is less than 1 µM.

In the case of `O=S(=O)(c1cc(-c2nc(-c3ccc(C(F)(F)F)cc3)c[nH]2)ccc1Cl)N1CCC(O)CC1` [Example 99], the EC50 was greater than 10 µM.

On to `O=S(=O)(c1cc(-c2nc(-c3cccs3)c[nH]2)ccc1Cl)N1CCC(O)CC1` [Example 70], for which the EC50 was 1 to 10 µM.

As for `O=S(=O)(c1cc(-c2nc(-c3ccc(Br)c(F)c3)c[nH]2)ccc1Cl)N1CCN(c2ccc(F)cn2)CC1` [Example 219], the EC50 is less than 1 µM.

Consider `O=S(=O)(c1cc(-c2nc(-c3ccc(Br)c(F)c3)c[nH]2)ccc1Cl)N1CCN(c2cccnc2)CC1` [Example 195], for which the EC50 was less than 1 µM.

Turning to `O=S(=O)(c1cc(-c2nc(-c3ccc(F)c(C(F)F)c3)c[nH]2)ccc1Cl)N1CCC(O)CC1` [Example 248], the 50% effective concentration (EC50) is greater than 10 µM.

`O=S(=O)(c1cc(-c2nc(-c3cscn3)c[nH]2)ccc1Cl)N1CCC(O)CC1` [Example 80]: the EC50 was greater than 10 µM.

In the case of `O=S(=O)(c1cc(-c2nc(-c3ccc(Br)c(F)c3)c[nH]2)ccc1Cl)N1CC[C@@H](O)[C@@H](O)CC1` [Example 19], the EC50 was less than 1 µM.

For the compound `C[C@H](NC(=O)OC(C)(C)C)C(=O)OC1CCN(S(=O)(=O)c2cc(-c3nc(-c4ccc(F)c(Br)c4)c[nH]3)ccc2Cl)CC1` [Example 169], the EC50 is less than 1 µM.

`O=C(Nc1ccccc1)C1CCN(S(=O)(=O)c2cc(-c3nc(-c4ccc(Br)c(F)c4)c[nH]3)ccc2Cl)CC1` [Example 166]: the EC50 lay within 1 to 10 µM.

As to `O=S(=O)(c1cc(-c2nc(-c3ccc(Cl)c(C4CC4)c3)c[nH]2)ccc1Cl)N1CCC(O)CC1` [Example 17], the EC50 was less than 1 µM.

As for `C[C@@H]1CCN(S(=O)(=O)c2cc(-c3nc(-c4ccc(Br)c(F)c4)c[nH]3)ccc2Cl)C[C@@H]1O` [Example 244], the EC50 is less than 1 µM.

As for `O=S(=O)(c1cc(-c2nc(-c3ccc(Br)c(F)c3)c[nH]2)ccc1Cl)N1C[C@H](O)[C@@H](O)C1` [Example 259], the EC50 was less than 1 µM.

On to `CC(C)(C)OC(=O)NCC1CN(S(=O)(=O)c2cc(-c3ncc(-c4ccc(F)c(Br)c4)[nH]3)ccc2Cl)C1` [Example 182], for which the EC50 is less than 1 µM.

Turning to `COc1cc(-c2c[nH]c(-c3ccc(Cl)c(S(=O)(=O)N4CCC(O)CC4)c3)n2)ccc1Cl` [Example 216], the EC50 is less than 1 µM.

`O=S(=O)(c1cc(-c2nc(-c3ccc(Br)c(F)c3)c[nH]2)ccc1Cl)N1CCN(c2ccc(Cl)cn2)CC1` [Example 281]: the half-maximal effective concentration (EC50) is less than 1 µM.

For `O=S(=O)(c1cc(-c2ncc(-c3ccc(Br)c(F)c3)[nH]2)ccc1Cl)N1C[C@@H](O)[C@H](O)C1` [Example 229], the EC50 was less than 1 µM.

For `N#Cc1cc(-c2c[nH]c(-c3ccc(Cl)c(S(=O)(=O)N4CCC(O)CC4)c3)n2)ccc1C1CC1` [Example 156], the EC50 lay within 1 to 10 µM.

Turning to `COC(=O)NC1(C(=O)NCCCNS(=O)(=O)c2cc(-c3nc(-c4ccc(Br)c(F)c4)c[nH]3)ccc2Cl)CC1` [Example 192], the EC50 is less than 1 µM.

In the case of `CC(C)(O)C1CN(S(=O)(=O)c2cc(-c3ncc(-c4ccc(Br)c(F)c4)[nH]3)ccc2Cl)C1` [Example 210], the EC50 was less than 1 µM.

Consider `O=S(=O)(c1cc(-c2nc(-c3cc(F)cc(F)c3)c[nH]2)ccc1Cl)N1CCC(O)CC1` [Example 86], for which the EC50 was in the range of 1 to 10 µM.

For `O=S(=O)(c1cc(-c2nc(-c3cccc(F)c3F)c[nH]2)ccc1Cl)N1CCC(O)CC1` [Example 85], the EC50 was greater than 10 µM.

As for `O=C(Nc1ccccc1)N1CCN(S(=O)(=O)c2cc(-c3nc(-c4ccc(Br)c(F)c4)c[nH]3)ccc2Cl)CC1` [Example 206], the 50% effective concentration (EC50) was greater than 10 µM.

In the case of `O=S(=O)(c1cc(-c2nc(-c3ccc(Br)c(F)c3)c[nH]2)ccc1Cl)N1CC(O)C(CO)C1` (stereo not drawn) [Example 255], the EC50 was less than 1 µM.

For the compound `O=S(=O)(c1cc(-c2nc(-c3ccc(Br)c(F)c3)c[nH]2)ccc1Cl)N1CCN(S(=O)(=O)C2CC2)CC1` [Example 222], the EC50 is greater than 10 µM.

The assay is the same for the next values; noted with them: Hepatitis B virus, HePAD38, 120 h, read-out: HepAD38 EC50 (μM).
Consider `O=C(NCCCNS(=O)(=O)c1cc(-c2nc(-c3ccc(Br)c(F)c3)c[nH]2)ccc1Cl)Oc1ccccc1` [Example 179], for which the EC50 was less than 1 µM.

Usually EC50 stands for the concentration at which the effect is half-maximal.
